# Data as given in patent US7592345B2, “Piperazine and [1,4]diazepan derivatives as NK antagonists” (Hoffmann-La Roche Inc., priority 2007, dated 2009).
# Target: T1, recombinant human NK3 receptor (Homo sapiens, UniProt P29371)
# T1 construct: expressed in transfected cells; host or cells: HEK293 cells (transient expression), membranes
# T1 sequence (P29371 1-465): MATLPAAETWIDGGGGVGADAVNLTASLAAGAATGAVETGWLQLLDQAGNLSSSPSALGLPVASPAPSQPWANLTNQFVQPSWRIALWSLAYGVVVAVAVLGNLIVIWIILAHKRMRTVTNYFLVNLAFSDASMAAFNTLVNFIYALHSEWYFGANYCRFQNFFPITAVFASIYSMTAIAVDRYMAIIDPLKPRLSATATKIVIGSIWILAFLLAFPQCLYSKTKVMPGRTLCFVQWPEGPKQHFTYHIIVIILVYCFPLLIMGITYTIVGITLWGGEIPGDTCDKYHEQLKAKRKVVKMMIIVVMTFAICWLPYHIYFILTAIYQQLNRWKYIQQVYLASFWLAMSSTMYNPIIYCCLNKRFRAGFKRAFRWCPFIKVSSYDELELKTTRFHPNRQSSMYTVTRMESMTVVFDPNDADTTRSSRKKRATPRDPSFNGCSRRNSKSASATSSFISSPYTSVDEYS
# Test: [3H]SR142801 competition binding assay
# Conditions: [3H]SR142801, membranes from HEK293 cells transiently expressing recombinant human NK3 receptor; read-out: hNK3 Ki
# Procedure, shortened: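 Membranes from HEK293 cells transiently expressing human NK3 were incubated 75 min at RT with [3H]SR142801 at its KD and inhibitor (0.0003-10 μM) in Tris-HCl pH 7.4/MnCl2/phosphoramidon/BSA. Nonspecific binding used 10 μM SB222200. Ki from Hill-fitted IC50 via Cheng-Prusoff, duplicate determinations.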
row,SMILES,Ki [nM]
1,"CC(CCN1CCN(S(C)(=O)=O)CC1)(C(=O)NCc1cccc(C(F)(F)F)c1)c1ccc(Cl)c(Cl)c1 (stereo not drawn) [Example 8, 2-(3,4-Dichloro-phenyl)-4-(4-methanesulfonyl-piperazin-1-yl)-2-methyl-N-(3-trifluoromethyl-benzyl)-butyramide]",288
2,"COc1cc(CN(C)C(=O)C(C)(CCN2CCN(S(C)(=O)=O)[C@@H](C)C2)c2ccc(Cl)c(Cl)c2)ccc1OC(F)F (stereo partly drawn) [Example 66, 2-(3,4-Dichloro-phenyl)-N-(4-difluoromethoxy-3-methoxy-benzyl)-4-((S)-4-methanesulfonyl-3-methyl-piperazin-1-yl)-2,N-dimethyl-butyramide]",277
3,"C[C@@H]1CN(CCC(C)(C(=O)NCc2cc(C(F)(F)F)ccc2F)c2ccc(Cl)c(Cl)c2)CCN1S(C)(=O)=O (stereo partly drawn) [Example 46, 2-(3,4-Dichloro-phenyl)-N-(2-fluoro-5-trifluoromethyl-benzyl)-4-((R)-4-methanesulfonyl-3-methyl-piperazin-1-yl)-2-methyl-butyramide]",99.5
4,"C[C@@H]1CN(CCC(C)(C(=O)NCc2cccc(OC(F)F)c2)c2ccc(Cl)c(Cl)c2)CCN1S(C)(=O)=O (stereo partly drawn) [Example 43, 2-(3,4-Dichloro-phenyl)-N-(3-difluoromethoxy-benzyl)-4-((R)-4-methanesulfonyl-3-methyl-piperazin-1-yl)-2-methyl-butyramide]",99.9
5,"CC(CCN1CCCN(S(C)(=O)=O)CC1)(C(=O)NCc1cccc(OC(F)F)c1)c1ccc(Cl)c(Cl)c1 (stereo not drawn) [Example 115, 2-(3,4-Dichloro-phenyl)-N-(3-difluoromethoxy-benzyl)-4-(4-methanesulfonyl-[1,4]diazepan-1-yl)-2-methyl-butyramide]",183
6,"CC(CCN1CCN(S(C)(=O)=O)CC1)(C(=O)NCc1ccc(Cl)cc1)c1ccc(Cl)c(Cl)c1 (stereo not drawn) [Example 29, N-(4-Chloro-benzyl)-2-(3,4-dichloro-phenyl)-4-(4-methanesulfonyl-piperazin-1-yl)-2-methyl-butyramide]",98.4
7,"CC(CCN1CCN(S(C)(=O)=O)CC1)(C(=O)NCc1ccc(OC(F)F)cc1)c1ccc(Cl)c(Cl)c1 (stereo not drawn) [Example 13, 2-(3,4-Dichloro-phenyl)-N-(4-difluoromethoxy-benzyl)-4-(4-methanesulfonyl-piperazin-1-yl)-2-methyl-butyramide]",326
8,"CC(CCN1CCN(S(C)(=O)=O)CC1)(C(=O)NCc1ccc(OC(F)(F)F)cc1)c1ccc(Cl)c(Cl)c1 (stereo not drawn) [Example 17, 2-(3,4-Dichloro-phenyl)-4-(4-methanesulfonyl-piperazin-1-yl)-2-methyl-N-(4-trifluoromethoxy-benzyl)-butyramide]",146
9,"COc1ccc(CN(C)C(=O)C(C)(CCN2CCN(S(C)(=O)=O)[C@@H](C)C2)c2ccc(Cl)c(Cl)c2)cc1F (stereo partly drawn) [Example 62, 2-(3,4-Dichloro-phenyl)-N-(3-fluoro-4-methoxy-benzyl)-4-((S)-4-methanesulfonyl-3-methyl-piperazin-1-yl)-2,N-dimethyl-butyramide]",216
10,"C[C@H]1CN(CCC(C)(C(=O)NCc2cc(F)ccc2C(F)(F)F)c2ccc(Cl)c(Cl)c2)CCN1S(C)(=O)=O (stereo partly drawn) [Example 74, 2-(3,4-Dichloro-phenyl)-N-(5-fluoro-2-trifluoromethyl-benzyl)-4-((S)-4-methanesulfonyl-3-methyl-piperazin-1-yl)-2-methyl-butyramide]",496
11,"CC(CCN1CCN(S(C)(=O)=O)CC1)(C(=O)NCc1cccc(OC(F)(F)F)c1)c1ccc(Cl)c(Cl)c1 (stereo not drawn) [Example 9, 2-(3,4-Dichloro-phenyl)-4-(4-methanesulfonyl-piperazin-1-yl)-2-methyl-N-(3-trifluoromethoxy-benzyl)-butyramide]",190
12,"COc1cccc(CN(C)C(=O)C(C)(CCN2CCN(S(C)(=O)=O)[C@@H](C)C2)c2ccc(Cl)c(Cl)c2)c1 (stereo partly drawn) [Example 78, 2-(3,4-Dichloro-phenyl)-4-((S)-4-methanesulfonyl-3-methyl-piperazin-1-yl)-N-(3-methoxy-benzyl)-2,N-dimethyl-butyramide]",611

# Compounds with a lower Ki, results first:
row,Ki [nM],SMILES
1,68.1,"C[C@H]1CN(CCC(C)(C(=O)NCc2ccc(C(F)(F)F)cc2)c2ccc(Cl)c(Cl)c2)CCN1S(C)(=O)=O (stereo partly drawn) [Example 75, 2-(3,4-Dichloro-phenyl)-4-((S)-4-methanesulfonyl-3-methyl-piperazin-1-yl)-2-methyl-N-(4-trifluoromethyl-benzyl)-butyramide]"
2,78.4,"CN(Cc1cccc(C(F)(F)F)c1)C(=O)C(C)(CCN1CCN(S(C)(=O)=O)CC1)c1ccc(Cl)c(Cl)c1 (stereo not drawn) [Example 127, 2-(3,4-Dichloro-phenyl)-4-(4-methanesulfonyl-piperazin-1-yl)-2,N-dimethyl-N-(3-trifluoromethyl-benzyl)-butyramide]"
3,40.6,"CC(CCN1CCN(S(C)(=O)=O)CC1)(C(=O)N[C@@H](CO)c1ccccc1)c1ccc(Cl)c(Cl)c1 (single isomer, unassigned) [Example 128, (R or S)-2-(3,4-Dichloro-phenyl)-N-((R)-2-hydroxy-1-phenyl-ethyl)-4-(4-methanesulfonyl-piperazin-1-yl)-2-methyl-butyramide]"
4,42.9,"C[C@H]1CN(CCC(C)(C(=O)NCc2ccc(Cl)c(Cl)c2)c2ccc(Cl)c(Cl)c2)CCN1S(C)(=O)=O (stereo partly drawn) [Example 72, N-(3,4-Dichloro-benzyl)-2-(3,4-dichloro-phenyl)-4-((S)-4-methanesulfonyl-3-methyl-piperazin-1-yl)-2-methyl-butyramide]"
5,11.4,"C[C@H]1CN(CCC(C)(C(=O)N(C)Cc2ccc(Cl)c(C(F)(F)F)c2)c2ccc(Cl)c(Cl)c2)CCN1S(C)(=O)=O (stereo partly drawn) [Example 69, N-(4-Chloro-3-trifluoromethyl-benzyl)-2-(3,4-dichloro-phenyl)-4-((S)-4-methanesulfonyl-3-methyl-piperazin-1-yl)-2,N-dimethyl-butyramide]"
6,16.8,"C[C@H]1CN(CCC(C)(C(=O)N(C)Cc2ccc(F)c(C(F)(F)F)c2)c2ccc(Cl)c(Cl)c2)CCN1S(C)(=O)=O (stereo partly drawn) [Example 64, 2-(3,4-Dichloro-phenyl)-N-(4-fluoro-3-trifluoromethyl-benzyl)-4-((S)-4-methanesulfonyl-3-methyl-piperazin-1-yl)-2,N-dimethyl-butyramide]"
7,16.9,"C[C@@H]1CN(CCC(C)(C(=O)N(C)Cc2ccc(C(F)(F)F)cc2)c2ccc(Cl)c(Cl)c2)CCN1S(C)(=O)=O (stereo partly drawn) [Example 55, 2-(3,4-Dichloro-phenyl)-4-((R)-4-methanesulfonyl-3-methyl-piperazin-1-yl)-2,N-dimethyl-N-(4-trifluoromethyl-benzyl)-butyramide]"
8,45,"CN(Cc1ccc(C(F)(F)F)cc1)C(=O)C(C)(CCN1CCN(S(C)(=O)=O)CC1)c1ccc(Cl)c(Cl)c1 (stereo not drawn) [Example 28, 2-(3,4-Dichloro-phenyl)-4-(4-methanesulfonyl-piperazin-1-yl)-2,N-dimethyl-N-(4-trifluoromethyl-benzyl)-butyramide]"
9,16.8,"COc1ccc(C(NC(=O)C(C)(CCN2CCN(S(C)(=O)=O)[C@H](C)C2)c2ccc(Cl)c(Cl)c2)C2CC2)cc1 (stereo partly drawn) [Example 32, N-[Cyclopropyl-(4-methoxy-phenyl)-methyl]-2-(3,4-dichloro-phenyl)-4-((R)-4-methanesulfonyl-3-methyl-piperazin-1-yl)-2-methyl-butyramide]"
10,6.7,"CN(Cc1ccc(Cl)c(C(F)(F)F)c1)C(=O)C(C)(CCN1CCCN(S(C)(=O)=O)CC1)c1ccc(Cl)c(Cl)c1 (stereo not drawn) [Example 111, N-(4-Chloro-3-trifluoromethyl-benzyl)-2-(3,4-dichloro-phenyl)-4-(4-methanesulfonyl-[1,4]diazepan-1-yl)-2,N-dimethyl-butyramide]"
11,50.8,"Cc1ccc(CN(C)C(=O)C(C)(CCN2CCN(S(C)(=O)=O)[C@H](C)C2)c2ccc(Cl)c(Cl)c2)cc1 (stereo partly drawn) [Example 36, 2-(3,4-Dichloro-phenyl)-4-((R)-4-methanesulfonyl-3-methyl-piperazin-1-yl)-2,N-dimethyl-N-(4-methyl-benzyl)-butyramide]"
12,46.4,"C[C@@H]1CN(CCC(C)(C(=O)NCc2ccc(Cl)c(F)c2)c2ccc(Cl)c(Cl)c2)CCN1S(C)(=O)=O (stereo partly drawn) [Example 52, N-(4-Chloro-3-fluoro-benzyl)-2-(3,4-dichloro-phenyl)-4-((R)-4-methanesulfonyl-3-methyl-piperazin-1-yl)-2-methyl-butyramide]"
13,65.7,"COc1ccc(C(NC(=O)C(C)(CCN2CCN(S(C)(=O)=O)[C@@H](C)C2)c2ccc(Cl)c(Cl)c2)C2CC2)cc1 (stereo partly drawn) [Example 63, N-[Cyclopropyl-(4-methoxy-phenyl)-methyl]-2-(3,4-dichloro-phenyl)-4-((S)-4-methanesulfonyl-3-methyl-piperazin-1-yl)-2-methyl-butyramide]"
14,60.2,"COc1ccc(CN(C)C(=O)C(C)(CCN2CCCN(S(C)(=O)=O)CC2)c2ccc(Cl)c(Cl)c2)cc1F (stereo not drawn) [Example 104, 2-(3,4-Dichloro-phenyl)-N-(3-fluoro-4-methoxy-benzyl)-4-(4-methanesulfonyl-[1,4]diazepan-1-yl)-2,N-dimethyl-butyramide]"
15,56.2,"C[C@@H]1CN(CCC(C)(C(=O)N(C)Cc2cccc(C(F)(F)F)c2)c2ccc(Cl)c(Cl)c2)CCN1S(C)(=O)=O (stereo partly drawn) [Example 58, 2-(3,4-Dichloro-phenyl)-4-((R)-4-methanesulfonyl-3-methyl-piperazin-1-yl)-2,N-dimethyl-N-(3-trifluoromethyl-benzyl)-butyramide]"
